Measurements as given in ChEMBL document CHEMBL6096734, “Design, Synthesis and Anti-Inflammatory Evaluation of 3-Substituted 5-Amidobenzoate Derivatives as Novel P2Y14 Receptor Antagonists via Structure-Guided Molecular Hybridization” (J Med Chem, 2025).
Each block holds one compound with its values, some of them ahead of it. Active and inactive are the calls of the source. The calls are words filed in the database; no cut-off is given here.

Columns and labels:
[1] = target: T1, P2Y purinoceptor 14 (Homo sapiens) (UniProt Q15391); settings: time 30.0 min
T1 sequence (whole entry): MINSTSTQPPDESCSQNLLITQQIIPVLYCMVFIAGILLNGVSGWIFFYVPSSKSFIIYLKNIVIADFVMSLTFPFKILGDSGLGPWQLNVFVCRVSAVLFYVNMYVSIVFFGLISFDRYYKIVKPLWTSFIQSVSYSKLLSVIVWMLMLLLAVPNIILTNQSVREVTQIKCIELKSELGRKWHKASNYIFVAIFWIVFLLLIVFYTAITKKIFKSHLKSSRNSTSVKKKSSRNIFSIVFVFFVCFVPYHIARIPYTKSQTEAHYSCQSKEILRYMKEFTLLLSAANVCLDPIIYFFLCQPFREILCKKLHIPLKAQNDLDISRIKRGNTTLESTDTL

P2Y purinoceptor 14 = target: T2, P2Y purinoceptor 14 (Homo sapiens, UniProt Q15391); assay: Antagonist activity at human P2Y14R stably expressed in HEK293 cells assessed as inhibition of UDPG-induced cAMP accumulation at 100 nM incubated for 30 mins in presence of forskolin by cAMP-Glo assay relative to control; format: functional, cell-based
T2 sequence (Q15391 whole entry): T1 sequence (whole entry)

Mus musculus [2] = assay: Anti-inflammatory activity in LPS-induced male C57BL/6 mouse model of acute […] injury assessed as decrease in CCL2 mRNA expression in lung at 2 mg/kg measured after 7 days by qPCR analysis; format: functional, organism-based; settings: time 7.0 day
Mus musculus [3] = assay: Anti-inflammatory activity in LPS-induced male C57BL/6 mouse model of acute […] injury assessed as decrease in lymphocyte count in BALF at 2 mg/kg measured after 7 days; format: functional, organism-based; settings: time 7.0 day
Mus musculus [4] = assay: Anti-inflammatory activity in LPS-induced male C57BL/6 mouse model of acute […] injury assessed as decrease in CCL2 level in serum at 2 mg/kg measured after 7 days by ELISA method; format: functional, organism-based; settings: time 7.0 day
Mus musculus [5] = assay: Anti-inflammatory activity in LPS-induced male C57BL/6 mouse model of acute […] injury assessed as reduction in Wet/dry weight ratio at 2 mg/kg measured after 7 days; format: functional, organism-based; settings: time 7.0 day
Mus musculus [6] = assay: Anti-inflammatory activity in LPS-induced male C57BL/6 mouse model of acute […] injury assessed as decrease dsDNA formation at 2 mg/kg measured after 7 days; format: functional, organism-based; settings: time 7.0 day
Mus musculus [7] = assay: Anti-inflammatory activity in LPS-induced male C57BL/6 mouse model of acute […] injury assessed as decrease in CXCL1 mRNA expression in lung at 2 mg/kg measured after 7 days by qPCR analysis; format: functional, organism-based; settings: time 7.0 day
Mus musculus [8] = assay: Anti-inflammatory activity in LPS-induced male C57BL/6 mouse model of acute […] injury assessed as decrease in Ly6G+ neutrophils in lung tissue at 2 mg/kg measured after 7 days by immunofluorescence analysis; format: functional, organism-based; settings: time 7.0 day
Mus musculus [9] = assay: Anti-inflammatory activity in LPS-induced male C57BL/6 mouse model of acute […] injury assessed as decrease in IL-1 beta level at 2 mg/kg measured after 7 days; format: functional, organism-based; settings: time 7.0 day
Mus musculus [10] = assay: Anti-inflammatory activity in LPS-induced male C57BL/6 mouse model of acute […] injury assessed as decrease in CXCL10 mRNA expression in lung at 2 mg/kg measured after 7 days by qPCR analysis; format: functional, organism-based; settings: time 7.0 day
Mus musculus [11] = assay: Anti-inflammatory activity in LPS-induced male C57BL/6 mouse model of acute […] injury assessed as decrease in caspase-1 expression at p10 subunit at 2 mg/kg measured after 7 days; format: functional, organism-based; settings: time 7.0 day
Mus musculus [12] = assay: Anti-inflammatory activity in LPS-induced male C57BL/6 mouse model of acute […] injury assessed as decrease CXCL9 mRNA expression in lung at 2 mg/kg measured after 7 days by qPCR analysis; format: functional, organism-based; settings: time 7.0 day
Mus musculus [13] = assay: Anti-inflammatory activity in LPS-induced male C57BL/6 mouse model of acute […] injury assessed as decrease in TNF-alpha level at 2 mg/kg measured after 7 days; format: functional, organism-based; settings: time 7.0 day
Mus musculus [14] = assay: Anti-inflammatory activity in LPS-induced male C57BL/6 mouse model of acute […] injury assessed as decrease in GSDMD-N expression at 2 mg/kg measured after 7 days; format: functional, organism-based; settings: time 7.0 day
Mus musculus [15] = assay: Anti-inflammatory activity in LPS-induced male C57BL/6 mouse model of acute […] injury assessed as decrease in NLRP3 expression at 2 mg/kg measured after 7 days; format: functional, organism-based; settings: time 7.0 day
Mus musculus [16] = assay: Anti-inflammatory activity in LPS-induced male C57BL/6 mouse model of acute […] injury assessed as decrease NE level at 2 mg/kg measured after 7 days; format: functional, organism-based; settings: time 7.0 day
Mus musculus [17] = assay: Anti-inflammatory activity in LPS-induced male C57BL/6 mouse model of acute […] injury assessed as alveolar wall thickening at 2 mg/kg measured after 7 days by H and E staining based analysis; format: functional, organism-based; settings: time 7.0 day
Mus musculus [18] = assay: Anti-inflammatory activity in LPS-induced male C57BL/6 mouse model of acute […] injury assessed as decrease MPO level at 2 mg/kg measured after 7 days; format: functional, organism-based; settings: time 7.0 day
Mus musculus [19] = assay: Anti-inflammatory activity in LPS-induced male C57BL/6 mouse model of acute […] injury assessed as decrease in CXCL1 level in serum at 2 mg/kg measured after 7 days by ELISA method; format: functional, organism-based; settings: time 7.0 day
Mus musculus [20] = assay: Anti-inflammatory activity in LPS-induced male C57BL/6 mouse model of acute […] injury assessed as decrease in monocyte count in BALF at 2 mg/kg measured after 7 days; format: functional, organism-based; settings: time 7.0 day
Mus musculus [21] = assay: Anti-inflammatory activity in LPS-induced male C57BL/6 mouse model of acute […] injury assessed as decrease in neutrophil count in BALF at 2 mg/kg measured after 7 days; format: functional, organism-based; settings: time 7.0 day
Mus musculus [22] = assay: Anti-inflammatory activity in LPS-induced male C57BL/6 mouse model of acute […] injury assessed as decrease in caspase-1 expression at p20 subunit at 2 mg/kg measured after 7 days; format: functional, organism-based; settings: time 7.0 day
Mus musculus [23] = assay: Anti-inflammatory activity in LPS-induced male C57BL/6 mouse model of acute […] injury assessed as reduction of lung edema at 2 mg/kg measured after 7 days by H and E staining based analysis; format: functional, organism-based; settings: time 7.0 day
Mus musculus [24] = assay: Anti-inflammatory activity in LPS-induced male C57BL/6 mouse model of acute […] injury assessed as appearance of tight junction integrity at 2 mg/kg measured after 7 days by ZO-1 staining based immunofluorescence analysis; format: functional, organism-based; settings: time 7.0 day
Mus musculus [25] = assay: Anti-inflammatory activity in LPS-induced male C57BL/6 mouse model of acute […] injury assessed as reduction of interstitial hemorrhage at 2 mg/kg measured after 7 days by H and E staining based analysis; format: functional, organism-based; settings: time 7.0 day
Mus musculus [26] = assay: Anti-inflammatory activity in LPS-induced male C57BL/6 mouse model of acute […] injury assessed as decrease in F4/80+ macrophage in lung tissue at 2 mg/kg measured after 7 days by immunofluorescence analysis; format: functional, organism-based; settings: time 7.0 day
Mus musculus [27] = assay: Anti-inflammatory activity in LPS-induced male C57BL/6 mouse model of acute […] injury assessed as reduction of intravascular congestion at 2 mg/kg measured after 7 days by H and E staining based analysis; format: functional, organism-based; settings: time 7.0 day
Mus musculus [28] = assay: Anti-inflammatory activity in LPS-induced male C57BL/6 mouse model of acute […] injury assessed as reduction of neutrophil infiltration at 2 mg/kg measured after 7 days by H and E staining based analysis; format: functional, organism-based; settings: time 7.0 day
Mus musculus [29] = assay: Anti-inflammatory activity in LPS-induced male C57BL/6 mouse model of acute […] injury assessed as decrease in IL-6 level at 2 mg/kg measured after 7 days; format: functional, organism-based; settings: time 7.0 day
Mus musculus [30] = assay: Anti-inflammatory activity in LPS-induced male C57BL/6 mouse model of acute […] injury assessed as decrease in total WBC count in BALF at 2 mg/kg measured after 7 days; format: functional, organism-based; settings: time 7.0 day
Mus musculus [31] = assay: Anti-inflammatory activity in LPS-induced male C57BL/6 mouse model of acute […] injury assessed as decrease in ASC expression at 2 mg/kg measured after 7 days; format: functional, organism-based; settings: time 7.0 day
[32] = HEK293, filed as antagonist, dose 100.0 nM

inhibition ([1]; HEK293, dose 100.0 nM): 39.8%
Structure (SMILES): O=C(Cc1cccs1)Nc1cc(C(=O)O)cc(-c2nc3ccccc3o2)c1

inhibition ([1]; HEK293, dose 100.0 nM): 24.2%
Structure (SMILES): O=C(Cc1ccc(-n2cccc2)cc1)Nc1cc(C(=O)O)cc(-c2nc3ccccc3o2)c1

inhibition ([1]; HEK293, dose 100.0 nM): inactive
Structure (SMILES): COC(=O)c1cc(NC(=O)Cc2ccc(F)cc2)cc(-c2nc3ccccc3o2)c1

inhibition ([1]; HEK293, dose 100.0 nM): 20.9%
Structure (SMILES): O=C(Cc1ccc(Br)cc1)Nc1cc(C(=O)O)cc(-c2nc3ccccc3o2)c1

inhibition ([1]; HEK293, dose 100.0 nM): 39.3%
Structure (SMILES): COC(=O)c1cc(NC(=O)Cc2ccc(OC)cc2)cc(-c2nc3ccccc3o2)c1

inhibition [1, 32]: 48%
Structure (SMILES): COc1ccc(CC(=O)Nc2cc(C(=O)O)cc(-c3nc4ccccc4o3)c2)cc1

inhibition [1, 32]: 46.1%
Structure (SMILES): N#Cc1ccc(CC(=O)Nc2cc(C(=O)O)cc(-c3nc4ccccc4o3)c2)cc1

inhibition ([1]; HEK293, dose 100.0 nM): 23.1%
Structure (SMILES): O=C(Cc1ccc(C(F)(F)F)cc1)Nc1cc(C(=O)O)cc(-c2nc3ccccc3o2)c1

inhibition ([1]; HEK293, dose 100.0 nM): 32.3%
Structure (SMILES): COC(=O)c1cc(NC(=O)Cc2ccc(-n3cccc3)cc2)cc(-c2nc3ccccc3o2)c1

inhibition ([1]; HEK293, dose 100.0 nM): 30.8%
Structure (SMILES): O=C(Cc1ccc(F)cc1)Nc1cc(C(=O)O)cc(-c2nc3ccccc3o2)c1

inhibition ([1]; HEK293, dose 100.0 nM): 35.2%
Structure (SMILES): O=C(Cc1ccccc1)Nc1cc(C(=O)O)cc(-c2nc3ccccc3o2)c1

inhibition [1, 32]: 48.6%
Structure (SMILES): COC(=O)c1cc(NC(=O)Cc2ccccc2)cc(-c2nc3ccccc3o2)c1

inhibition ([1]; HEK293, dose 100.0 nM): 34.5%
Structure (SMILES): COC(=O)c1cc(NC(=O)Cc2ccc(C)c(C)c2)cc(-c2nc3ccccc3o2)c1

Second part, the compound before the results:

Structure (SMILES): COC(=O)c1cc(NC(=O)Cc2ccc(C)cc2)cc(-c2nc3ccccc3s2)c1
inhibition ([1]; HEK293, dose 100.0 nM): 34.7%

Structure (SMILES): Cc1ccc(CC(=O)Nc2cc(C(=O)NCCOCCOCCOCCNC(=O)CCCC[C@H]3SC[C@H]4NC(=O)N[C@H]43)cc(-c3nc4ccccc4[nH]3)c2)cc1
IC50 (P2Y purinoceptor 14): 0.84 nM

Structure (SMILES): COC(=O)c1cc(NC(=O)Cc2ccc(C)cc2C)cc(-c2nc3ccccc3o2)c1
inhibition [1, 32]: 42.3%

Structure (SMILES): C[C@@H]1C[C@H]2[C@@H]3CCC4=CC(=O)C=C[C@]4(C)[C@@]3(F)[C@@H](O)C[C@]2(C)[C@@]1(O)C(=O)CO
Activity (Mus musculus [2]): Active | Activity (Mus musculus [3]): Active | Activity (Mus musculus [4]): Active | Activity (Mus musculus [5]): Active | Activity (Mus musculus [6]): Active | Activity (Mus musculus [7]): Active | Activity (Mus musculus [8]): Active | Activity (Mus musculus [9]): Active | Activity (Mus musculus [10]): Active | Activity (Mus musculus [11]): Active | Activity (Mus musculus [12]): Active | Activity (Mus musculus [13]): Active | Activity (Mus musculus [14]): Active | Activity (Mus musculus [15]): Active | Activity (Mus musculus [16]): Active | Activity (Mus musculus [17]): Active | Activity (Mus musculus [18]): Active | Activity (Mus musculus [19]): Active | Activity (Mus musculus [20]): Active | Activity (Mus musculus [21]): Active | Activity (Mus musculus [22]): Active | Activity (Mus musculus [23]): Active | Activity (Mus musculus [24]): Active | Activity (Mus musculus [25]): Active | Activity (Mus musculus [26]): Active | Activity (Mus musculus [27]): Active | Activity (Mus musculus [28]): Active | Activity (Mus musculus [29]): Active | Activity (Mus musculus [30]): Active | Activity (Mus musculus [31]): Active

Structure (SMILES): COC(=O)c1cc(NC(=O)Cc2cccs2)cc(-c2nc3ccccc3o2)c1
inhibition ([1]; HEK293, dose 100.0 nM): 36.5%

Structure (SMILES): COC(=O)c1cc(NC(=O)Cn2cccc2)cc(-c2nc3ccccc3o2)c1
inhibition ([1]; HEK293, dose 100.0 nM): 26.3%

Structure (SMILES): COC(=O)c1cc(NC(=O)Cn2cncn2)cc(-c2nc3ccccc3o2)c1
inhibition [1, 32]: 41.5%

Structure (SMILES): O=C(Cn1cccc1)Nc1cc(C(=O)O)cc(-c2nc3ccccc3o2)c1
inhibition [1, 32]: 43.2%

Structure (SMILES): O=C(Cn1cncn1)Nc1cc(C(=O)O)cc(-c2nc3ccccc3o2)c1
inhibition ([1]; HEK293, dose 100.0 nM): 38.3%
